Results published in patent publication US20260250320A1, “LIPIDATED PEPTIDE INHIBITORS OF INTERLEUKIN-23 RECEPTOR” (Janssen Pharmaceutica NV, priority 2023, published 2026).
Each block holds one compound with its values, some of them ahead of it. *1 amine or outer side, *2 acyl side, *3 side chain or, on linkers, in order; H or OH if unused. Where a SMILES comes first, the peptide text is derived from it. Bridges are numbered along the chain shown (N, C = ends). Side-chain parts run from the residue outwards. [ ]: non-standard residue; d: D form. The star is where a group is joined. Me3N+(CH2)2O(CH2)2O(CH2)2CO = C[N+](C)(C)CCOCCOCCC(=O)*; PEG12 = NCCOCCOCCOCCOCCOCCOCCOCCOCCOCCOCCOCCOCCC(=O)O; Trp(7-Me,2,3-dihydro) = Cc1cccc2c1NCC2C[C@H](N)C(=O)O; X42 = O=C(O)CCCCCCCCCCCCCCCCC(=O)N[C@H](CO)CCC(=O)*; CH2CH2OCH2CH2OCH2CH2NMe3+ = C[N+](C)(C)CCOCCOCC*; Trp(7-Me) = Cc1cccc2c(C[C@H](N)C(=O)O)c[nH]c12; C20 diacid = O=C(O)CCCCCCCCCCCCCCCCCCC(=O)*; Hexanoyl(6-NMe3+) = C[N+](C)(C)CCCCCC(=O)*; C18 diacid = O=C(O)CCCCCCCCCCCCCCCCC(=O)*; Phe(4-Me) = Cc1ccc(C[C@H](N)C(=O)O)cc1; γGlu = O=C(O)[C@H](CCC(=O)[*:2])N[*:1]; 2Nal = N[C@@H](Cc1ccc2ccccc2c1)C(=O)O; AEF = NCCOc1ccc(C[C@H](N)C(=O)O)cc1; X2 = C[N+](C)(C)C[C@@H](CC(=O)O)N*; 3Pal = N[C@@H](Cc1cccnc1)C(=O)O; Lys(Me) = CNCCCC[C@H](N)C(=O)O; NMeK = CN[C@@H](CCCCN)C(=O)O; Pen = CC(C)(S)[C@H](N)C(=O)O; Suc = O=C(CCC(=O)[*:2])[*:1]; Thp = NC1(C(=O)O)CCOCC1; AEEA = NCCOCCOCC(=O)O; Sar = CNCC(=O)O

Experiments:
[1] = test system: IL-23-stimulated phosphorylated STAT3 in peripheral blood mononuclear cells (PBMCs); assay: PBMC pSTAT3 Assay; type: cell-based; conditions: PBMCs from healthy donors; 30 min preincubation with peptide; IL-23 5 ng/mL for 30 min; phospho-STAT3 by MSD
Procedure: Cryopreserved peripheral blood mononuclear cells (PBMCs) from healthy donors were thawed and washed twice in ImmunoCult-XF T cell expansion medium (XF-TCEM) supplemented with CTL anti-aggregate wash. The cells were counted, resuspended at 2-6×10^5 cells per mL XF-TCEM supplemented with penicillin/streptomycin and 100 ng/mL […] (BioLegend, 579404), and cultured in tissue culture flasks coated with anti-CD3 (eBioscience, 16-0037-85 or BD Pharmingen, 555329) at 37° C. in 5% CO2. On day 4 of culture, PBMCs were collected, washed twice in RPMI-1640 supplemented with 0.1% BSA (RPMI-BSA), and incubated in RPMI-BSA in upright tissue culture flasks for ~4 hours at 37° C. in 5% CO2. Following this 'starvation,' a total of 6×10^4 cells in 30 μL RPMI-BSA was transferred into each well of a 384-well plate pre-spotted with peptide or DMSO. The cells were incubated for 30 minutes prior to the addition of […] at a final concentration of 5 ng/mL. The cells were stimulated with cytokine for 30 minutes at 37° C. in 5% CO2, transferred onto ice for 10 minutes, and lysed. Cell lysates were stored at -80° C. until phosphorylated STAT3 was measured using the phospho-STAT panel kit (Meso Scale Discovery, […]). Results are provided below. • A: IC50<0.5 nM; • B: 0.5 nM≤IC50<5 nM; • C: 5 nM≤IC50; • ND: Not determined

IL-23R = target: T1, IL-23R (Homo sapiens, UniProt Q5VWK5); assay: IL23R Reporter Assay; type: cell-based; conditions: HEK293 cells containing IL-23R, IL-12Rβ1 and STAT-inducible firefly luciferase reporter; 10 ng/mL IL-23 (EC90); 5 h
T1 construct: HEK293 cells containing IL-23R, IL-12Rβ1 and a firefly luciferase reporter gene driven by a STAT-inducible promoter (Promega); host or cells: HEK293
T1 sequence (Q5VWK5 24-629): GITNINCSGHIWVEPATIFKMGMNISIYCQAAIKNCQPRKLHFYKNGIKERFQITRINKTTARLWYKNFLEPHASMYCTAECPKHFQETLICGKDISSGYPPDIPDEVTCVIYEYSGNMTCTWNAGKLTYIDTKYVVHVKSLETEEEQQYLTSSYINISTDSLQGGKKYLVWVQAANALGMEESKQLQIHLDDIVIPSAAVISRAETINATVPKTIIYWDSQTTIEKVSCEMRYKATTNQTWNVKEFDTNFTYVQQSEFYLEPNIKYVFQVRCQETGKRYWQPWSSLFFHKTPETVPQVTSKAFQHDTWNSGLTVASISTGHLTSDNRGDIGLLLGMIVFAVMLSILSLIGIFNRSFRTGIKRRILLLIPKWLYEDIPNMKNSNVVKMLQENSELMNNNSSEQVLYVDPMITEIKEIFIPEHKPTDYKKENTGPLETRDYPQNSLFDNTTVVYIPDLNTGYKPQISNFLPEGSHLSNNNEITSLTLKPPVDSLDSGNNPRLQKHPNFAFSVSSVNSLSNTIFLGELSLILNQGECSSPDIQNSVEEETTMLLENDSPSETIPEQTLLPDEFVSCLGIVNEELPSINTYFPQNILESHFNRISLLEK
Procedure: Compounds were serially diluted in 100% (v/v) DMSO) and plated using an Echo acoustic dispenser (Labcyte) into 1536-well non-treated black assay plates (Corning #9146). 3 μL of HEK293 cells containing IL-23R, IL-12Rβ1 and a firefly luciferase reporter gene driven by a STAT-inducible promoter (Promega) were added to the plates (4000 cells/well), followed by 3 μL of 10 ng/mL IL-23 (equivalent to EC90 concentration). After 5 h at 37° C., 5% CO2, 95% relative humidity, cells were placed at 20° C. and treated with BioGlo reagent (Promega) according to the Manufacturer's instructions. Luminescence was measured on a Pherastar FSX (BMG LabTech). Data were normalized to IL-23 treatment (0% inhibition) and 30 μM of control inhibitor (100% inhibition), and IC50 values were determined using a 4-parameter Hill equation.

IC50 (IL-23R): 50 to 500 nM
Compound: CC(=O)NCCCC[C@@H]1NC(=O)[C@H](Cc2c[nH]c3c(C)cccc23)NC(=O)[C@H]([C@@H](C)O)NC(=O)[C@H](CC(N)=O)NC(=O)[C@@H](NC(=O)[C@@H](CCCNC(=N)N)NC(=O)CCCCC[N+](C)(C)C)C(C)(C)SSC(C)(C)[C@@H](C(=O)N[C@@H](Cc2ccc(OCCN)cc2)C(=O)N[C@@H](Cc2ccc3ccccc3c2)C(=O)NC2(C(=O)N[C@@H](CCC(=O)O)C(=O)N[C@@H](CC(N)=O)C(=O)N[C@@H](Cc3cccnc3)C(=O)N(C)CC(=O)N[C@@H](CCCCNC(=O)COCCOCCNC(=O)COCCOCCNC(=O)CC[C@H](NC(=O)CCCCCCCCCCCCCCCCC(=O)O)C(=O)O)C(N)=O)CCOCC2)NC1=O [compound 81, 5cpaCO-r-Pen(3)-N-T-7MeW-K(Ac)-Pen(3)-AEF-2Nal-THP-E-N-3Pya-Sar-K(PEG2PEG2gEC18OH)-CONH2] ({Hexanoyl(6-NMe3+)}-[dR][Pen]NT[Trp(7-Me)]K(Ac)[Pen][AEF][2Nal][Thp]EN[3Pal][Sar]K([AEEA-AEEA-γGlu-C18 diacid])-NH2; disulfide 2-7)
IC50 [1]: < 0.5 nM

IC50 (IL-23R): 50 to 500 nM
Compound: CC(=O)N(C)CCCC[C@@H]1NC(=O)[C@H](Cc2c[nH]c3c(C)cccc23)NC(=O)[C@H]([C@@H](C)O)NC(=O)[C@H](CC(=O)N(C)C)NC(=O)[C@@H](N)C(C)(C)SSC(C)(C)[C@@H](C(=O)N[C@@H](Cc2ccc(OCCOCCOCC[N+](C)(C)C)cc2)C(=O)N[C@@H](Cc2ccc3ccccc3c2)C(=O)NC2(C(=O)N[C@@H](CCCCN(C)C(C)=O)C(=O)N[C@@H](CC(N)=O)C(=O)N[C@@H](Cc3cccnc3)C(=O)N(C)CC(=O)N[C@@H](CCCCNC(=O)COCCOCCNC(=O)COCCOCCNC(=O)CC[C@H](NC(=O)CCCCCCCCCCCCCCCCC(=O)O)C(=O)O)C(=O)N(C)C)CCOCC2)NC1=O [compound 148, cPEG3aCO-Pen(3)-N(N(Me)2)-T-7MeW-K(NMeAc)-Pen(3)-APEC3F-2Nal-THP-K(NMeAc)-N-3Pya-Sar-K(PEG2PEG2gEC18OH)-CON(Me)2] (H-[Pen]D(NMe2)T[Trp(7-Me)][Lys(Me)](Ac)[Pen]Y(CH2CH2OCH2CH2OCH2CH2NMe3+)[2Nal][Thp][Lys(Me)](Ac)N[3Pal][Sar]K([AEEA-AEEA-γGlu-C18 diacid])-NMe2; disulfide 1-6)
IC50 [1]: < 0.5 nM

Second part, the compound before the results:

Compound: CC(=O)NCCCC[C@@H]1NC(=O)[C@H](CC2CNc3c(C)cccc32)NC(=O)[C@H]([C@@H](C)O)NC(=O)[C@H](CC(N)=O)NC(=O)[C@@H](NC(C)=O)C(C)(C)SSC(C)(C)[C@@H](C(=O)N[C@@H](Cc2ccc(C)cc2)C(=O)N[C@@H](Cc2ccc3ccccc3c2)C(=O)NC2(C(=O)N[C@@H](CCCCNC(=O)CCOCCOCCOCCOCCOCCOCCOCCOCCOCCOCCOCCOCCNC(=O)CC[C@H](NC(=O)CCCCCCCCCCCCCCCCCCC(=O)O)C(=O)O)C(=O)N[C@@H](CC(N)=O)C(=O)N[C@@H](Cc3cccnc3)C(=O)N(C)CC(N)=O)CCOCC2)NC1=O (stereo partly drawn) [compound 162, MeCO-Pen(3)-N-T-7MeW-K(Ac)-Pen(3)-AEF-2Nal-THP-K(PEG12gEC20OH)-N-3Pya-Sar-CONH2] (Ac-[Pen]NT[Trp(7-Me,2,3-dihydro)]K(Ac)[Pen][Phe(4-Me)][2Nal][Thp]K([PEG12-γGlu-C20 diacid])N[3Pal][Sar]-NH2; disulfide 1-6)
IC50 [1]: < 0.5 nM
IC50 (IL-23R): 50 to 500 nM

Compound: CC(=O)N(C)CCCC[C@@H]1NC(=O)[C@H](Cc2c[nH]c3c(C)cccc23)NC(=O)[C@H]([C@@H](C)O)NC(=O)[C@H](CC(=O)N(C)C)NC(=O)[C@@H](NC(=O)CCOCCOCC[N+](C)(C)C)C(C)(C)SSC(C)(C)[C@@H](C(=O)N[C@@H](Cc2ccc(OCCOCCOCC[N+](C)(C)C)cc2)C(=O)N[C@@H](Cc2ccc3ccccc3c2)C(=O)NC2(C(=O)N[C@@H](CCCCN(C)C(C)=O)C(=O)N[C@@H](CC(N)=O)C(=O)N[C@@H](Cc3cccnc3)C(=O)N(C)[C@@H](CCCCNC(=O)CCOCCOCCOCCOCCOCCOCCOCCOCCOCCOCCOCCOCCNC(=O)CC[C@H](NC(=O)CCCCCCCCCCCCCCCCC(=O)O)C(=O)O)C(N)=O)CCOCC2)NC1=O [compound 107, cPEG3aCO-Pen(3)-N(N(Me)2)-T-7MeW-K(NMeAc)-Pen(3)-APEG3F-2Nal-THP-K(NMeAc)-N-3Pya-NMeK(PEG12gEC18OH)-CONH2] ({Me3N+(CH2)2O(CH2)2O(CH2)2CO}-[Pen]D(NMe2)T[Trp(7-Me)][Lys(Me)](Ac)[Pen]Y(CH2CH2OCH2CH2OCH2CH2NMe3+)[2Nal][Thp][Lys(Me)](Ac)N[3Pal][NMeK]([PEG12-γGlu-C18 diacid])-NH2; disulfide 1-6)
IC50 [1]: < 0.5 nM
IC50 (IL-23R): < 50 nM

Compound: CC(=O)N[C@H](CCCNC(=N)N)C(=O)N[C@@H]1C(=O)N[C@@H](CC(N)=O)C(=O)N[C@@H]([C@@H](C)O)C(=O)N[C@@H](Cc2c[nH]c3c(C)cccc23)C(=O)N[C@@H](CCCCNC(=O)CCC(=O)N[C@H](CC(=O)O)C[N+](C)(C)C)C(=O)N[C@H](C(=O)N[C@@H](Cc2ccc(OCCNC(=O)COCCOCCNC(=O)COCCOCCNC(=O)CC[C@H](NC(=O)CCCCCCCCCCCCCCCCC(=O)O)C(=O)O)cc2)C(=O)N[C@@H](Cc2ccc3ccccc3c2)C(=O)NC2(C(=O)N[C@@H](CCC(=O)O)C(=O)N[C@@H](CC(N)=O)C(=O)N[C@@H](Cc3cccnc3)C(=O)N(C)CC(N)=O)CCOCC2)C(C)(C)SSC1(C)C [compound 13, MeCO-r-Pen(3)-N-T-7MeW-K(d)-Pen(3)-AEF(PEG2gEC18OH)-2Nal-THP-E-N-3Pya-Sar-CONH2] (Ac-[dR][Pen]NT[Trp(7-Me)]K([Suc-X2])[Pen][AEF]([AEEA-AEEA-γGlu-C18 diacid])[2Nal][Thp]EN[3Pal][Sar]-NH2; disulfide 2-7)
IC50 [1]: 0.5 to 5 nM
IC50 (IL-23R): 50 to 500 nM

Compound: CC(=O)NCCCC[C@@H]1NC(=O)[C@H](Cc2c[nH]c3c(C)cccc23)NC(=O)[C@H]([C@@H](C)O)NC(=O)[C@H](CC(N)=O)NC(=O)[C@@H](NC(=O)[C@@H](CCCCNC(=O)COCCOCCNC(=O)COCCOCCNC(=O)CC[C@@H](CO)NC(=O)CCCCCCCCCCCCCCCCC(=O)O)NC(C)=O)C(C)(C)SSC(C)(C)[C@@H](C(=O)N[C@@H](Cc2ccc(OCCNC(=O)CCC(=O)N[C@H](CC(=O)O)C[N+](C)(C)C)cc2)C(=O)N[C@@H](Cc2ccc3ccccc3c2)C(=O)NC2(C(=O)N[C@@H](CCC(=O)O)C(=O)N[C@@H](CC(N)=O)C(=O)N[C@@H](Cc3cccnc3)C(=O)N(C)CC(N)=O)CCOCC2)NC1=O [compound 17, MeCO-k(PEG2PEG2gEC18OH)-Pen(3)-N-T-7MeW-K(Ac)-Pen(3)-AEF(d)-2Nal-THP-E-N-3Pya-Sar-CONH2] (Ac-[dK]([AEEA-AEEA-X42])[Pen]NT[Trp(7-Me)]K(Ac)[Pen][AEF]([Suc-X2])[2Nal][Thp]EN[3Pal][Sar]-NH2; disulfide 2-7)
IC50 [1]: < 0.5 nM
